For one data set, the target named is T1, δ-opioid receptor (δOR) (Rattus norvegicus, UniProt P33533).
T1 construct: from tissue; host or cells: rat brain homogenate (membrane fractions)
Put plainly: competitive radioligand displacement assay, δOR, [3H]DELT II, rat brain homogenate membranes. It is filed as binding. The following applies: for δOR affinity in words: [3H]DELT II displacement, compared to parent TAPP. The procedure:
(§1) The determinations were performed by a competitive radioligand displacement assay with selective radioligands.
(§2) Membrane fractions of rat brain Homogenate were incubated at 25 °C for 60 mins in the presence of radioligands (0.5 nM) specific for each receptor (μOR: [^3H]DAMGO and δOR: [^3H]DELT II, obtained as a generous gift from Prof. Géza Tóth) and the increasing concentrations of the tested compounds (10^−11 up to 10^−5 M, each concentration in duplicate). For measuring non-specific binding, 10 μM naloxone was used as the competitor. The assay buffer contained 50mM Tris-HCl (pH 7.4), bovine serum albumin (0.1 mg/mL), bacitracin (30 μg/mL), bestatin (30 μM), captopril (10 μM), and phenylmethylsulfonyl fluoride (0.1 mM) in the total reaction volume of 1 mL. After the incubation, the binding reactions were terminated by rapid filtration with M-24 Cell Harvester (Brandel/USA) through GF/B Whatman glass fibre strips. The filters were pre-soaked with 0.5% PEI before harvesting in order to minimize non-specific binding. Filter discs were placed separately in 24-well plates and immersed with the Optiphase Supermix scintillation cocktail (Perkin Elmer, Waltham, MA, USA). Radioactivity was measured using a MicroBeta LS Trilux scintillation counter (PerkinElmer, Waltham, MA, USA).

In a further data set the target is T2, μ-opioid receptor (μOR) (Rattus norvegicus, UniProt P33535).
T2 construct: from tissue; host or cells: rat brain homogenate (membrane fractions)
T2 sequence (P33535 whole entry): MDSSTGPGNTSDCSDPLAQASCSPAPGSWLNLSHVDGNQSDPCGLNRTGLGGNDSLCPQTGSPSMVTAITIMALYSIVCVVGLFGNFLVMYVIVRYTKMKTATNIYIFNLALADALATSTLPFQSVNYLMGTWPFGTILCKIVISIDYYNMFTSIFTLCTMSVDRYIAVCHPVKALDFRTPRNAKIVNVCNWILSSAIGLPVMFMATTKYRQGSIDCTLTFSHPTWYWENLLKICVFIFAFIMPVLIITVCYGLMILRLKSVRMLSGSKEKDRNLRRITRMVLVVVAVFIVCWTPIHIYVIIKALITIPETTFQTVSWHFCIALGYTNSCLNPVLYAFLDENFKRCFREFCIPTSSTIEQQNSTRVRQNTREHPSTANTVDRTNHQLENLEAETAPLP
Put plainly: competitive radioligand displacement assay, μOR, [3H]DAMGO, rat brain homogenate membranes. In kind it is binding. The following applies: for decrease in μOR affinity compared to the parent TAPP: ratio of IC50 versus TAPP. Here is the method:
as §1, §2

The nature of data set [1]: stability against proteolysis in human plasma by HPLC/MS. It is filed as in vitro ADME. To be noted: for remaining at 96 h, 350 µM: read-out: C96h, percent of the initial peptide concentration remaining after 96 h; for stability in human plasma in words: up to 96 h, compared to TAPP; for site of the first proteolytic cleavage: HPLC/MS; for half-life / half-life at […]: read-out: half-life time (T1/2) in human plasma (converted). Here is the method:
The results are graphically presented in Figure 7 and the representative HPLC chromatograms are given in Figures SM-STAB-1 to SM-STAB-22 in Supplementary Materials. […] After 96 h, more than 90% of the initial peptide concentration (C96h > 90%) remained in the test sample. This is in marked contrast to endomorphin-2 (Tyr-Pro-Phe-Phe-NH2) that, in the very same conditions, is rapidly degraded with half-life time (T1/2) of only 30 min.
The determination of plasma stability was performed according to a previously described protocol with minor modifications. Human plasma for testing was obtained from a healthy donor. […] Portions of the plasma (100 μL) were dispensed into Eppendorf tubes and equilibrated at 37 ± 1 °C for 5 min, before adding 100 μL of the stock solution of each tested peptide. Samples of the test solution were taken and analyzed at several time points (0, 1, 2, 3, 4, 5, 6, 12, 24, 48, and 96 h of the experiment).
In order to precipitate the plasma proteins, 400 μL ethanol (98%) was added to the samples, whereafter shaking (1 min) and cooling in 4 °C (5 min) followed. Subsequently, the samples were centrifuged for 10 min at 2000 g. The supernatant (20 μL) was immediately analyzed by HPLC/MS using the LCMS-2010EV Shimadzu apparatus with a Phenomenex Jupiter 4u Proteo 90A, C12 (25 cm × 2 mm × 4 μm) column. The chromatography was performed in reversed-phase system (solvents A: 0.05% FA in water, B: 0.05% FA in acetonitrile) with a non-linear gradient was used (1–31% B in 20 min followed by an increase to 97% B from 20 to 30 min) at a solvent flow of 0.5 mL/min. The activity of the plasma was confirmed by using endomorphin-2 ([…]) as a control sample. The results of the HPLC/MS analyses allowed for quantitative determination of the concentration changes of the tested peptides. Furthermore, it was possible to indicate the location of the first proteolytic cleavage.

Data set [2] in a line: Human plasma for testing was obtained from a healthy donor. The following applies: 37 ± 1 °C, up to 96 h.
The mark [3] stands for this setting: radioligand 0.5 nM [3H]DELT II, rat brain homogenate, mean of three determinations in duplicate, read-out: IC50 δOR.
Setting [4] is: radioligand 0.5 nM [3H]DAMGO, rat brain homogenate, mean of three determinations in duplicate, read-out: IC50 ± S.E.M. μOR.

Like-named read-outs stand apart in the source and are kept apart here. Non-standard residues stand in square brackets, D forms with d. Residues, ends and D or L forms follow the SMILES beside them.

T1 sequence (P33533 whole entry): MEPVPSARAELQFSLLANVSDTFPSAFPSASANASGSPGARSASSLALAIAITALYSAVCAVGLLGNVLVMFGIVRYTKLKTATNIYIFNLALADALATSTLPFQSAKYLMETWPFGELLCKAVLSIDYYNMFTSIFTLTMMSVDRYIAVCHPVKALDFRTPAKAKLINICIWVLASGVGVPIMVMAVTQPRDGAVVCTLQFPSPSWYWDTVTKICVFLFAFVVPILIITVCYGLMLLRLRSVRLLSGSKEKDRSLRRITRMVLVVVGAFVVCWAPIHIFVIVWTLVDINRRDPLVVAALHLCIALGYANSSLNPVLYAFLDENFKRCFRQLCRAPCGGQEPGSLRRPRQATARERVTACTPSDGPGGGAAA

`C[C@@H](NC(=O)[C@@H](N)Cc1ccc(O)cc1)C(=O)N[C@@H](Cc1ccccc1)C(=O)NC[C@H](Cc1ccccc1)C(N)=O` [compound 17, [(S)-β^2hPhe^4]-TAPP]: on δ-opioid receptor (δOR), the 50% inhibitory concentration (IC50) amounted to 417 nM and the “δOR affinity in words” value is “slight improvement in δOR affinity when compared to the parent peptide”. The compound also showed an IC50 on μ-opioid receptor (μOR) of 7.8 ± 4 nM. In addition, in data set [1] (37 °C), the remaining at 96 h, 350 µM was approximately 90%. Besides, the “stability in human plasma in words” value in data set [1] is recorded as “equally resistant to proteolysis as the parent”.

As for `C[C@@H](NC(=O)[C@@H](N)Cc1ccc(O)cc1)C(=O)N[C@@H](Cc1ccccc1)C(=O)NC[C@@H](Cc1ccccc1)C(N)=O` [compound 12, [(R)-β^2hPhe^4]-TAPP], the half-inhibitory concentration (IC50) is 708 nM at δ-opioid receptor (δOR) and 1.9 ± 2.4 nM at μ-opioid receptor (μOR). In addition, the “δOR affinity in words” value on δ-opioid receptor (δOR) is listed as “at a level similar to the parent TAPP”. Besides, in data set [1] (37 °C), the remaining at 96 h, 350 µM was found to be 55%.

[(S)-β^2hPhe^3]-TAPP: the cleaved bond result in data set [2] was “Tyr1-D-Ala2, first_seen”.

As for [(S)-β^2hAla^2]-TAPP, the cleaved bond result in data set [2] is listed as “Tyr1-(S)-β^2hAla2, first_seen”.

Regarding [(R)-β^2hTyr^1]-TAPP*, the cleaved bond entry in data set [2] is “Phe4-NH2, first_seen”.

Regarding `C[C@@H](NC(=O)[C@@H](N)Cc1ccc(O)cc1)C(=O)NC[C@H](Cc1ccccc1)C(=O)N[C@@H](Cc1ccccc1)C(N)=O` [compound 16, [(S)-β^2hPhe^3]-TAPP], on δ-opioid receptor (δOR), the IC50 worked out at 890 nM and the “δOR affinity in words” value is reported as “at a level similar to the parent TAPP”. The concentration for half-maximal inhibition (IC50) at μ-opioid receptor (μOR) is 15.5 ± 2.5 nM. Further, the remaining at 96 h, 350 µM in data set [1] (37 °C) was more than 65%.

As for [(R)-β^2hPhe^3]-TAPP, in data set [2], the cleaved bond entry is “Tyr1-D-Ala2, first_seen”.

Turning to `C[C@@H](NC(=O)[C@@H](CN)Cc1cccc(O)c1)C(=O)N[C@@H](Cc1ccccc1)C(=O)N[C@@H](Cc1ccccc1)C(N)=O` [compound 9, [(R)-β^2h-m-Tyr^1]-TAPP*], the “δOR affinity in words” value on δ-opioid receptor (δOR) is “did not exhibit any measurable binding”. Moreover, at δ-opioid receptor (δOR) (setting [3]), the IC50 was more than 10000 nM. On μ-opioid receptor (μOR) (setting [4]), the IC50 was 48.9 ± 2.3 nM. Moreover, in data set [1], the “site of the first proteolytic cleavage” value is reported as “C-terminal amide (deamidation)” and the “stability in human plasma in words” value was “stability similar to TAPPs”.

As for `C[C@@H](CNC(=O)[C@@H](N)Cc1ccc(O)cc1)C(=O)N[C@@H](Cc1ccccc1)C(=O)N[C@@H](Cc1ccccc1)C(N)=O` [compound 10, [(S)-β^2hAla^2]-TAPP], the half-life in data set [1] (37 °C) was approximately 4.5 h.

As for `C[C@@H](NC(=O)[C@H](CN)Cc1ccc(O)cc1)C(=O)N[C@@H](Cc1ccccc1)C(=O)N[C@@H](Cc1ccccc1)C(N)=O` [compound 13, [(S)-β^2hTyr^1]-TAPP*], at δ-opioid receptor (δOR), the “δOR affinity in words” value is given as “did not exhibit any measurable binding”. The IC50 at δ-opioid receptor (δOR) (setting [3]) is more than 10000 nM. Further, on μ-opioid receptor (μOR) (setting [4]), the 50% inhibitory concentration (IC50) is 339 ± 5.1 nM. In data set [1], the “site of the first proteolytic cleavage” value is recorded as “C-terminal amide (deamidation)” and the “stability in human plasma in words” value is “stability similar to TAPPs”.

For the compound [(S)-β^2h-m-Tyr^1]-TAPP*, the cleaved bond result in data set [2] is “Phe4-NH2, first_seen”.

As to H-Y[dA]FF-NH2, the cleaved bond result in data set [2] is “Phe4-NH2, first_seen”.

Turning to [(R)-β^2hAla^2]-TAPP, the cleaved bond result in data set [2] is given as “Tyr1-(R)-β^2hAla2, first_seen”.

Regarding `C[C@@H](NC(=O)[C@@H](N)Cc1ccc(O)cc1)C(=O)NC[C@@H](Cc1ccccc1)C(=O)N[C@@H](Cc1ccccc1)C(N)=O` [compound 11, [(R)-β^2hPhe^3]-TAPP], on δ-opioid receptor (δOR), the IC50 is 794 nM and the “δOR affinity in words” value was “at a level similar to the parent TAPP”. In addition, at μ-opioid receptor (μOR), the IC50 stood at 95.4 ± 2.5 nM and the “decrease in μOR affinity compared to the parent TAPP” value is “more than 10 fold”. Further, in data set [1] (37 °C), the half-life at […] was approximately 40 h.

As for `C[C@@H](NC(=O)[C@@H](N)Cc1ccc(O)cc1)C(=O)N[C@@H](Cc1ccccc1)C(=O)N[C@@H](Cc1ccccc1)C(N)=O` [compound 1, H-Tyr-D-Ala-Phe-Phe-NH2, reference compound] (HELM PEPTIDE1{Y.[dA].F.F.[am]}$$$$V2.0), at δ-opioid receptor (δOR), the half-maximal inhibitory concentration (IC50) is 616 nM and the “δOR affinity in words” value is “low binding”. Further, the remaining at 96 h, 350 µM in data set [1] (37 °C) was more than 90%. Besides, in data set [1], the “site of the first proteolytic cleavage” value was “C-terminal amide (deamidation)” and the “stability in human plasma in words” value was “resistant to proteolysis”.

Regarding [(S)-β^2hTyr^1]-TAPP *, the cleaved bond result in data set [2] is “Phe4-NH2, first_seen”.

Turning to [(R)-β^2h-m-Tyr^1]-TAPP*, the cleaved bond entry in data set [2] is on record as “Phe4-NH2, first_seen”.

In the case of `C[C@@H](NC(=O)[C@H](CN)Cc1cccc(O)c1)C(=O)N[C@@H](Cc1ccccc1)C(=O)N[C@@H](Cc1ccccc1)C(N)=O` [compound 14, [(S)-β^2h-m-Tyr^1]-TAPP*], the “δOR affinity in words” value at δ-opioid receptor (δOR) is “did not exhibit any measurable binding”. Moreover, the IC50 on δ-opioid receptor (δOR) (setting [3]) is more than 10000 nM. Moreover, on μ-opioid receptor (μOR) (setting [4]), the concentration for half-maximal inhibition (IC50) is 11.2 ± 6.3 nM. Besides, in data set [1], the “site of the first proteolytic cleavage” value was “C-terminal amide (deamidation)” and the “stability in human plasma in words” value was “stability similar to TAPPs”.

On to [(R)-β^2hPhe^4]-TAPP, for which, in data set [2], the cleaved bond entry is on record as “Tyr1-D-Ala2, first_seen”.

For the compound `C[C@@H](NC(=O)[C@@H](CN)Cc1ccc(O)cc1)C(=O)N[C@@H](Cc1ccccc1)C(=O)N[C@@H](Cc1ccccc1)C(N)=O` [compound 8, [(R)-β^2hTyr^1]-TAPP*], the “δOR affinity in words” value at δ-opioid receptor (δOR) was “did not exhibit any measurable binding”. In addition, the IC50 at δ-opioid receptor (δOR) (setting [3]) is more than 10000 nM. Also, the IC50 on μ-opioid receptor (μOR) (setting [4]) turned out to be 77.6 ± 2.4 nM. Besides, the “decrease in μOR affinity compared to the parent TAPP” value at μ-opioid receptor (μOR) is given as “about 15 fold”. Moreover, in data set [1], the “site of the first proteolytic cleavage” value is reported as “C-terminal amide (deamidation)” and the “stability in human plasma in words” value is on record as “stability similar to TAPPs”.

As to [(S)-β^2hPhe^4]-TAPP, the cleaved bond result in data set [2] is given as “Tyr1-D-Ala2, first_seen”.

On to `NC(=O)[C@H](Cc1ccccc1)NC(=O)[C@H](Cc1ccccc1)NC(=O)[C@@H]1CCCN1C(=O)[C@@H](N)Cc1ccc(O)cc1` [endomorphin-2, Tyr-Pro-Phe-Phe-NH2, reference compound], for which the half-life at […] in data set [1] (same conditions, control sample) was 0.5 h.

Consider `C[C@H](CNC(=O)[C@@H](N)Cc1ccc(O)cc1)C(=O)N[C@@H](Cc1ccccc1)C(=O)N[C@@H](Cc1ccccc1)C(N)=O` [compound 15, [(R)-β^2hAla^2]-TAPP], for which the half-life in data set [1] (37 °C) was approximately 4.5 h.

These data come from paper PMC7288052 (Molecules, 2020).
